Columns and labels:
late watergrass = assay: Test Example 1: herbicidal activity, application before weed generation under submerged conditions (Table 16, symbol A); assay type: in vivo, late watergrass (Echinochloa oryzicola); settings: 320 g/ha applied herbicide
How it was run: (§1)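 Alluvial soil was flooded to 4 cm depth, weed seeds were sown mixed and 2.5-leaf rice seedlings were transplanted. On sowing day, the compound's emulsion, diluted in water to a set dose, was applied to the water surface. Plants grew at 25–30 °C and were scored 0–5 after three weeks.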

Japanese bulrush = assay: Test Example 1: herbicidal activity, application before weed generation under submerged conditions (Table 16, symbol B); assay type: in vivo, Japanese bulrush (Schoenoplectus juncoides); settings: 320 g/ha applied herbicide
How it was run: as §1

oval-leafed pondweed = assay: Test Example 1: herbicidal activity, application before weed generation under submerged conditions (Table 16, symbol C); assay type: in vivo, oval-leafed pondweed (Monochoria vaginalis); settings: 320 g/ha applied herbicide
How it was run: as §1

barnyard grass [1] = assay: Test Example 3: herbicidal effect by foliage application, Wagner pot (Table 18, symbol H); assay type: in vivo, barnyard grass (Echinochloa crus-galli); settings: for herbicidal effect on H (barnyard grass), rating 0-5: 320 g/ha
How it was run: (§2)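 Plants were sown in alluvial soil held under 0.1–0.5 cm standing water and grown 14 days in a greenhouse at 25–30 °C. An emulsifiable formulation, water-diluted to the set dose, was then sprayed onto the foliage, and effects were scored three weeks later using previously defined criteria.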

Chinese sprangletop = assay: Test Example 3: herbicidal effect by foliage application, Wagner pot (Table 18, symbol D); assay type: in vivo, chinese sprangletop (Leptochloa chinensis); settings: for herbicidal effect on D (Chinese sprangletop), rating 0-5: 320 g/ha
How it was run: as §2

rice flat sedge = assay: Test Example 3: herbicidal effect by foliage application, Wagner pot (Table 18, symbol E); assay type: in vivo, rice flat sedge (Cyperus iria); settings: for herbicidal effect on E (rice flat sedge), rating 0-5: 320 g/ha
How it was run: as §2

Italian ryegrass = assay: Test Example 4: herbicidal effect by soil treatment (Table 19, symbol K); assay type: in vivo, Italian ryegrass (Lolium multiflorum); settings: for K: Italian ryegrass, herbicidal effect rating: AAH 320 g/ha
How it was run: (§3)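 Emulsion of test compound, water-diluted to predetermined amount, sprayed on soil after sowing (seed depth ~1.5 cm, sterilized diluvial soil). Greenhouse, 25–30° C. Effect graded at three weeks post-spray.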

windgrass [2] = assay: Test Example 4: herbicidal effect by soil treatment (Table 19, symbol L); assay type: in vivo, windgrass (Apera spica-venti)
How it was run: as §3

lambsquarters = assay: Test Example 4: herbicidal effect by soil treatment (Table 19, symbol O); assay type: in vivo, lambsquarters (Chenopodium album); settings: for O: lambsquarters, herbicidal effect rating: AAH 320 g/ha
How it was run: as §3

chickweed [3] = assay: Test Example 4: herbicidal effect by soil treatment (Table 19, symbol P); assay type: in vivo, common chickweed (Stellaria media); settings: for P: chickweed, herbicidal effect rating: AAH 320 g/ha
How it was run: as §3

southern crabgrass = assay: Test Example 5: herbicidal effect by foliage application, plastic box (Table 20, symbol F); assay type: in vivo, southern crabgrass (Digitaria ciliaris); settings: foliage application; for effect on southern crabgrass (F): 3 weeks after application
How it was run: (§4)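 Post-emergence foliar test in sterilized diluvial soil. Compound applied as water-diluted emulsion at a predetermined rate to 14-day-old plants; evaluation at three weeks.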

barnyard grass [4] = assay: Test Example 5: herbicidal effect by foliage application, plastic box (Table 20, symbol H); assay type: in vivo, barnyard grass (Echinochloa crus-galli); settings: foliage application; for effect on barnyard grass (H): 3 weeks after application
How it was run: as §4

wild oat = assay: Test Example 5: herbicidal effect by foliage application, plastic box (Table 20, symbol I); assay type: in vivo, wild oat (Avena fatua); settings: foliage application; for effect on wild oat (I): 3 weeks after application
How it was run: as §4

blackgrass = assay: Test Example 5: herbicidal effect by foliage application, plastic box (Table 20, symbol J); assay type: in vivo, blackgrass (Alopecurus myosuroides); settings: foliage application; for effect on blackgrass (J): 3 weeks after application
How it was run: as §4

windgrass [5] = assay: Test Example 5: herbicidal effect by foliage application, plastic box (Table 20, symbol L); assay type: in vivo, windgrass (Apera spica-venti); settings: foliage application; for effect on windgrass (L): 3 weeks after application
How it was run: as §4

velvetleaf = assay: Test Example 5: herbicidal effect by foliage application, plastic box (Table 20, symbol M); assay type: in vivo, velvetleaf (Abutilon theophrasti); settings: foliage application; for effect on velvetleaf (M): 3 weeks after application
How it was run: as §4

persian speedwell = assay: Test Example 4: herbicidal effect by soil treatment (Table 19, symbol R); assay type: in vivo, Persian speedwell (Veronica persica); settings: AAH 320 g/ha
How it was run: as §3

redroot pigweed = assay: Test Example 5: herbicidal effect by foliage application, plastic box (Table 20, symbol N); assay type: in vivo, redroot pigweed (Amaranthus retroflexus); settings: foliage application
How it was run: as §4

chickweed [6] = assay: Test Example 5: herbicidal effect by foliage application, plastic box (Table 20, symbol P); assay type: in vivo, common chickweed (Stellaria media); settings: foliage application
How it was run: as §4

[7] = amount of applied herbicide 320 g/ha
[8] = 320 g/ha, three weeks after application
[9] = AAH 320 g/ha, evaluated three weeks after application

| SMILES | Herbicidal effect on A: late watergrass (grade 0-5) (late watergrass) | Herbicidal effect on B: Japanese bulrush (grade 0-5) (Japanese bulrush) | Herbicidal effect on C: oval-leafed pondweed (grade 0-5) (oval-leafed pondweed) | herbicidal effect on H (barnyard grass), rating 0-5 (barnyard grass [1]) | herbicidal effect on D (Chinese sprangletop), rating 0-5 (Chinese sprangletop) | herbicidal effect on E (rice flat sedge), rating 0-5 (rice flat sedge) | K: Italian ryegrass, herbicidal effect rating (Italian ryegrass) | O: lambsquarters, herbicidal effect rating (lambsquarters) | P: chickweed, herbicidal effect rating (chickweed [3]) | effect on southern crabgrass (F) (southern crabgrass; 320 g/ha) | effect on barnyard grass (H) (barnyard grass [4]; 320 g/ha) | effect on wild oat (I) (wild oat; 320 g/ha) | effect on blackgrass (J) (blackgrass; 320 g/ha) | effect on windgrass (L) (windgrass [5]; 320 g/ha) | effect on velvetleaf (M) (velvetleaf; 320 g/ha) | other results |
| --- | --- | --- | --- | --- | --- | --- | --- | --- | --- | --- | --- | --- | --- | --- | --- | --- |
| C=CCC(C)Oc1ccc(-c2sc3ccccc3c2-c2c(O)c(C)nn(C)c2=O)cc1 (racemic) [1-213] | 5 (Herbicidal rate of 90% or more (almost completely withered)) | 5 (Herbicidal rate of 90% or more (almost completely withered)) | 5 (Herbicidal rate of 90% or more (almost completely withered)) | 5 (Herbicidal rate of 90% or more (almost completely withered)) | 4 (Herbicidal rate of 70% or more and less than 90%) | 3 (Herbicidal rate of 40% or more and less than 70%) | 3 (Herbicidal rate of 40% or more and less than 70%) | 0 (Herbicidal rate of 5% or less (almost no effect)) | 3 (Herbicidal rate of 40% or more and less than 70%) | 5 (Herbicidal rate of 90% or more (almost completely withered)) | 5 (Herbicidal rate of 90% or more (almost completely withered)) | 3 (Herbicidal rate of 40% or more and less than 70%) | 5 (Herbicidal rate of 90% or more (almost completely withered)) | 5 (Herbicidal rate of 90% or more (almost completely withered)) | 5 (Herbicidal rate of 90% or more (almost completely withered)) | L: windgrass, herbicidal effect rating (windgrass [2]; AAH 320 g/ha): 2 (Herbicidal rate of 20% or more and less than 40%) |
| COCC(C)Oc1ccc(-c2sc3ccccc3c2-c2c(O)c(C)nn(C)c2=O)cc1 (racemic) [1-228] | 5 (Herbicidal rate of 90% or more (almost completely withered)) | 5 (Herbicidal rate of 90% or more (almost completely withered)) | 4 (Herbicidal rate of 70% or more and less than 90%) | 5 (Herbicidal rate of 90% or more (almost completely withered)) | 5 (Herbicidal rate of 90% or more (almost completely withered)) | 4 (Herbicidal rate of 70% or more and less than 90%) | 4 (Herbicidal rate of 70% or more and less than 90%) | 5 (Herbicidal rate of 90% or more (almost completely withered)) | 4 (Herbicidal rate of 70% or more and less than 90%) | 5 (Herbicidal rate of 90% or more (almost completely withered)) | 5 (Herbicidal rate of 90% or more (almost completely withered)) | 0 (Herbicidal rate of 5% or less (almost no effect)) | 5 (Herbicidal rate of 90% or more (almost completely withered)) | 5 (Herbicidal rate of 90% or more (almost completely withered)) | 5 (Herbicidal rate of 90% or more (almost completely withered)) | R: persian speedwell, herbicidal effect rating (persian speedwell): 5 (Herbicidal rate of 90% or more (almost completely withered)) |
| CC(=O)c1ccc(-c2sc3ccccc3c2-c2c(O)c(C)nn(C)c2=O)cc1 [1-041] | 3 (Herbicidal rate of 40% or more and less than 70%) | 4 (Herbicidal rate of 70% or more and less than 90%) | 4 (Herbicidal rate of 70% or more and less than 90%) | 1 (Herbicidal rate of 5% or more and less than 20%) | 4 (Herbicidal rate of 70% or more and less than 90%) | 5 (Herbicidal rate of 90% or more (almost completely withered)) |  |  |  |  |  |  |  |  |  | herbicidal effect rating, K: Italian ryegrass (Italian ryegrass; [7]): 5 (Herbicidal rate of 90% or more (almost completely withered)); herbicidal effect rating, O: lambsquarters (lambsquarters; [7]): 5 (Herbicidal rate of 90% or more (almost completely withered)); herbicidal effect rating, P: chickweed (chickweed [3]; [7]): 0 (Herbicidal rate of 5% or less (almost no effect)); herbicidal effect grade, F: southern crabgrass (southern crabgrass; [8]): 4 (Herbicidal rate of 70% or more and less than 90%); herbicidal effect grade, H: barnyard grass (barnyard grass [4]; [8]): 0 (Herbicidal rate of 5% or less (almost no effect)); herbicidal effect grade, I: wild oat (wild oat; [8]): 1 (Herbicidal rate of 5% or more and less than 20%); herbicidal effect grade, J: blackgrass (blackgrass; [8]): 0 (Herbicidal rate of 5% or less (almost no effect)); herbicidal effect grade, L: windgrass (windgrass [5]; [8]): 4 (Herbicidal rate of 70% or more and less than 90%); herbicidal effect grade, M: velvetleaf (velvetleaf; [8]): 5 (Herbicidal rate of 90% or more (almost completely withered)); herbicidal effect grade, N: redroot pigweed (redroot pigweed; [8]): 5 (Herbicidal rate of 90% or more (almost completely withered)); herbicidal effect grade, P: chickweed (chickweed [6]; [8]): 5 (Herbicidal rate of 90% or more (almost completely withered)) |
| Cc1nn(C)c(=O)c(-c2c(-c3ccc(O)cc3)sc3ccc(F)cc23)c1O [2-337] | 4 (Herbicidal rate of 70% or more and less than 90%) | 3 (Herbicidal rate of 40% or more and less than 70%) | 3 (Herbicidal rate of 40% or more and less than 70%) |  |  |  |  |  |  |  |  |  |  |  |  | herbicidal effect on H: barnyard grass (barnyard grass [1]; [7]): 3 (Herbicidal rate of 40% or more and less than 70%); herbicidal effect on D: Chinese sprangletop (Chinese sprangletop; [7]): 0 (Herbicidal rate of 5% or less (almost no effect)); herbicidal effect on E: rice flat sedge (rice flat sedge; [7]): 3 (Herbicidal rate of 40% or more and less than 70%); herbicidal effect on K: Italian ryegrass (Italian ryegrass; [7]): 0 (Herbicidal rate of 5% or less (almost no effect)); herbicidal effect on L: windgrass (windgrass [2]; [7]): 0 (Herbicidal rate of 5% or less (almost no effect)); herbicidal effect on O: lambsquarters (lambsquarters; [7]): 0 (Herbicidal rate of 5% or less (almost no effect)); herbicidal effect on P: chickweed (chickweed [3]; [7]): 3 (Herbicidal rate of 40% or more and less than 70%); F: southern crabgrass, herbicidal effect (criteria 0-5) (southern crabgrass; [9]): 0 (Herbicidal rate of 5% or less (almost no effect)); H: barnyard grass, herbicidal effect (criteria 0-5) (barnyard grass [4]; [9]): 0 (Herbicidal rate of 5% or less (almost no effect)); I: wild oat, herbicidal effect (criteria 0-5) (wild oat; [9]): 0 (Herbicidal rate of 5% or less (almost no effect)); J: blackgrass, herbicidal effect (criteria 0-5) (blackgrass; [9]): 0 (Herbicidal rate of 5% or less (almost no effect)); L: windgrass, herbicidal effect (criteria 0-5) (windgrass [5]; [9]): 0 (Herbicidal rate of 5% or less (almost no effect)); M: velvetleaf, herbicidal effect (criteria 0-5) (velvetleaf; [9]): 3 (Herbicidal rate of 40% or more and less than 70%); N: redroot pigweed, herbicidal effect (criteria 0-5) (redroot pigweed; [9]): 4 (Herbicidal rate of 70% or more and less than 90%); P: chickweed, herbicidal effect (criteria 0-5) (chickweed [6]; [9]): 5 (Herbicidal rate of 90% or more (almost completely withered)) |

Source: patent US20230085307A1, “PYRIDAZINONE COMPOUND AND HERBICIDE” (NISSAN CHEMICAL CORPORATION, priority 2019, published 2023)
